According to patent US8129398B2 (priority 2008, dated 2012):

The compounds below were run against T1, HIV-integrase (Human immunodeficiency virus type 1 group M subtype B, UniProt P12497) (assay: HIV-Integrase Inhibition Activity (SPA bead integration assay with P33 labeled target DNA)). Conditions: recombinant integrase, class symbols; read-out: in vitro activity.
T1 construct: Recombinant integrase (0.26 ng) was incubated with the beads
Assay type: biochemical
In short: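 Strand integration read as bead-proximity CPM after P33 target DNA (0.1 fmol) and inhibitor were added to washed integrase–substrate DNA complexes on SPA beads. Enzyme bound 90 min at 37° C; EDTA (10 mM final) terminated reaction; IC50 graded A/B/C.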

| SMILES | IC50 [nM] |
| --- | --- |
| O=C(NC12COC(CCn3c1nc(C(=O)NCc1ccc(F)cc1)c(O)c3=O)C2)OCc1ccccc1 (centres unmarked) [Example 217, Benzyl (2-((4-fluorobenzyl)carbamoyl)-3-hydroxy-4-oxo-7,8-dihydro-4 H,6H-8,11-methanopyrimido[2,1-d][1,5]oxazocin-11(10H)-yl)carbamate] | < 10 |
| Cc1cc(CNC(=O)c2nc3n(c(=O)c2O)CCC2CCC3(NC(=O)C(=O)N(C)C)C2)ccc1F (centres unmarked) [Example 212, Ethanediamide, N′-[2-[[[(4-fluoro-3-methylphenyl)methyl]amino]carbonyl]-7,8,9,10-tetrahydro-3-hydroxy-4-oxo-8,11-methano-4H-pyrimido[1,2-a]azocin-11(6H)-yl]-N,N-dimethyl-] | < 10 |
| COC(=O)N1CCCC1C(=O)NC12CCC(CC1)Cn1c2nc(C(=O)NCc2ccc(F)cc2)c(O)c1=O (centres unmarked) [Example 406] | < 10 |
| Cc1cc(CNC(=O)c2nc3n(c(=O)c2O)CC2CCC3(NC(=O)[C@H]3CCN(S(C)(=O)=O)C3)CC2)ccc1F [Example 283, 7,10-Ethanopyrimido[1,2-a]azepine-2-carboxamide, N-[(4-fluoro-3-methylphenyl)methyl]-4,6,7,8,9,10-hexahydro-3-hydroxy-10-[[[(3S)-1-(methylsulfonyl)-3-pyrrolidinyl]carbonyl]amino]-4-oxo-] | < 10 |
| CO[C@@H]1C[C@@H](C(=O)NC23CCC(CC2)Cn2c3nc(C(=O)NCc3ccc(F)cc3)c(O)c2=O)N(S(C)(=O)=O)C1 [Example 274, 7,10-Ethanopyrimido[1,2-a]azepine-2-carboxamide, N-[(4-fluorophenyl)methyl]-4,6,7,8,9,10-hexahydro-3-hydroxy-10-[[[(2S,4R)-4-methoxy-1-(methylsulfonyl)-2-pyrrolidinyl]carbonyl]amino]-4-oxo-] | < 10 |
| O=C(NC12CCC(CC1)Cn1c2nc(C(=O)NCc2ccc(F)cc2)c(O)c1=O)C(=O)N1CCN(c2ccccn2)CC1 [Example 78, N-(4-Fluorobenzyl)-3-hydroxy-4-oxo-10-((oxo(4-(2-pyridinyl)-1-piperazinyl)acetyl)amino)-4,6,7,8,9,10-hexahydro-7,10-ethanopyrimido[1,2-a]azepine-2-carboxamide] | < 10 |
| COC[C@@H]1CCCN1C(=O)C(=O)NC12CCC(CC1)Cn1c2nc(C(=O)NCc2ccc(F)cc2)c(O)c1=O [Example 89, N-(4-Fluorobenzyl)-3-hydroxy-10-((((2S)-2-(methoxymethyl)-1-pyrrolidinyl)(oxo)acetyl)amino)-4-oxo-4,6,7,8,9,10-hexahydro-7,10-ethanopyrimido[1,2-a]azepine-2-carboxamide] | < 10 |
| Cc1c(F)cc(Br)c(CNC(=O)c2nc3n(c(=O)c2O)CC2CCC3(N(C)C(=O)C(=O)N(C)C)CC2)c1Br [Example 162, N-(2-((2,6-Dibromo-4-fluoro-3-methylbenzyl)carbamoyl)-3-hydroxy-4-oxo-6,7,8,9-tetrahydro-7,10-ethanopyrimido[1,2-a]azepin-10(4H)-yl)-N,N′,N′-trimethylethanediamide] | < 10 |
| CN(C)CC(=O)NC12CCC(CC1)n1c2nc(C(=O)NCc2ccc(F)cc2)c(O)c1=O [Example 14, 6,9-Ethano-4H-pyrido[1,2-a]pyrimidine-2-carboxamide, 9-[[(dimethylamino)acetyl]amino]-N-[(4-fluorophenyl)methyl]-6,7,8,9-tetrahydro-3-hydroxy-4-oxo-] | 10 to 100 |
| CS(=O)(=O)NC12CCC(Cn3c1nc(C(=O)NCc1ccc(F)cc1)c(O)c3=O)C2 (centres unmarked) [Example 192, 7,10-Methanopyrimido[1,2-a]azepine-2-carboxamide, N-[(4-fluorophenyl)methyl]-4,6,7,8,9,10-hexahydro-3-hydroxy-10-[(methylsulfonyl)amino]-4-oxo-] | < 10 |
| Cc1ccc(CNC(=O)c2nc3n(c(=O)c2O)CC2CCC3(NC(=O)C(=O)N(C)C)CC2)o1 [Example 234] | < 10 |
| CO[C@H]1C[C@@H](C(=O)NC23CCC(CC2)Cn2c3nc(C(=O)NCc3ccc(F)c(C)c3)c(O)c2=O)N(C(=O)c2ccno2)C1 [Example 280, 7,10-Ethanopyrimido[1,2-a]azepine-2-carboxamide, N-[(4-fluoro-3-methylphenyl)methyl]-4,6,7,8,9,10-hexahydro-3-hydroxy-10-[[[(2S,4S)-1-(5-isoxazolylcarbonyl)-4-methoxy-2-pyrrolidinyl]carbonyl]amino]-4-oxo-] | < 10 |
| CN(C)C(=O)C(=O)NC12CCC(CC1)Cn1c2nc(C(=O)NCc2csc(-c3ccccc3)n2)c(O)c1=O [Example 359] | < 10 |
| CN(C)C(=O)C(=O)NC12CCC(CC1)Cn1c2nc(C(=O)NCc2ccc(F)c(C(F)(F)F)c2)c(O)c1=O [Example 119, N′-(2-((4-Fluoro-3-(trifluoromethyl)benzyl)carbamoyl)-3-hydroxy-4-oxo-6,7,8,9-tetrahydro-7,10-ethanopyrimido[1,2-a]azepin-10(4H)-yl)-N,N-dimethylethanediamide] | < 10 |
| CCN(C(=O)C(=O)N(C)C)C12CCC(CC1)Cn1c2nc(C(=O)NCc2ccc(F)cc2)c(O)c1=O [Example 173, N-Ethyl-N-(2-((4-fluorobenzyl)carbamoyl)-3-hydroxy-4-oxo-6,7,8,9-tetrahydro-7,11-ethanopyrimido[1,2-a]azepin-10(4H)-yl)-N′,N′-dimethylethanediamide] | < 10 |
| CCOC(=O)C(=O)NC12CCC(CC1)Cn1c2nc(C(=O)NCc2ccc(F)cc2)c(O)c1=O [Example 83, Ethyl((2-((4-fluorobenzyl)carbamoyl)-3-hydroxy-4-oxo-6,7,8,9-tetrahydro-7,10-ethanopyrimido[1,2-a]azepin-10(4H)-yl)amino)(oxo)acetate] | < 10 |
| CS(=O)(=O)N1CCN(C(=O)NC23CCC(CC2)Cn2c3nc(C(=O)NCc3ccc(F)cc3)c(O)c2=O)C1=O [Example 23, N-(4-Fluorobenzyl)-3-hydroxy-10-(((3-(methylsulfonyl)-2-oxo-1-imidazolidinyl)carbonyl)amino)-4-oxo-4,6,7,8,9,10-hexahydro-7,10-ethanopyrimido[1,2-a]azepine-2-carboxamide] | < 10 |
| CC(=O)NC12CCC(Cn3c1nc(C(=O)NCc1ccc(F)cc1)c(O)c3=O)C2 (centres unmarked) [Example 191, 7,10-Methanopyrimido[1,2-a]azepine-2-carboxamide, 10-(acetylamino)-N-[(4-fluorophenyl)methyl]-4,6,7,8,9,10-hexahydro-3-hydroxy-4-oxo-] | < 10 |
| Cc1cc(CNC(=O)c2nc3n(c(=O)c2O)CC[C@H]2CC[C@]3(NC(=O)C(=O)N(C)C)C2)ccc1F [Example 416, Ethanediamide, N′-[(8R,11S)-2-[[[(4-fluoro-3-methylphenyl)methyl]amino]carbonyl]-7,8,9,10-tetrahydro-3-hydroxy-4-oxo-8,11-methano-4H-pyrimido[1,2-a]azocin-11(6H)-yl]-N,N-dimethyl-] | < 10 |
| CCCS(=O)(=O)N1CCCC1C(=O)NC12CCC(CC1)Cn1c2nc(C(=O)NCc2ccc(F)cc2)c(O)c1=O (centres unmarked) [Example 404] | < 10 |
| CCN(C)C(=O)C(=O)NC12CCC(CC1)Cn1c2nc(C(=O)NCc2ccc(F)cc2)c(O)c1=O [Example 101, N-Ethyl-N′-(2-((4-fluorobenzyl)carbamoyl)-3-hydroxy-4-oxo-6,7,8,9-tetrahydro-7,10-ethanopyrimido[1,2-a]azepin-10(4H)-yl)-N-methylethanediamide] | < 10 |
| CN(C)C(=O)C(=O)NC12CCC(CC1)Cn1c2nc(C(=O)NCc2ccc(F)c(Cl)c2)c(O)c1=O [Example 112, N′-(2-((3-Chloro-4-fluorobenzyl)carbamoyl)-3-hydroxy-4-oxo-6,7,8,9-tetrahydro-7,10-ethanopyrimido[1,2-a]azepin-10(4H)-yl)-N,N-dimethylethanediamide] | < 10 |
| Cc1cc(C(=O)NC23CCC(CC2)Cn2c3nc(C(=O)NCc3ccc(F)cc3)c(O)c2=O)nn1C(C)(C)C [Example 240] | < 10 |
| Cc1cc(CNC(=O)c2nc3n(c(=O)c2O)CC2CCC3(NC(=O)C(C)(C)n3cc(C(=O)O)nn3)CC2)ccc1F [Example 285, 1H-1,2,3-Triazole-4-carboxylic acid, 1-[2-[[2-[[[(4-fluoro-3-methylphenyl)methyl]amino]carbonyl]-6,7,8,9-tetrahydro-3-hydroxy-4-oxo-7,10-ethanopyrimido[1,2-a]azepin-10(4H)-yl]amino]-1,1-dimethyl-2-oxoethyl]-] | < 10 |
| COc1ccccc1CNC(=O)c1nc2n(c(=O)c1O)CC1CCC2(NC(=O)C(=O)N(C)C)CC1 [Example 369] | < 10 |
| Cn1ccc(C(=O)NC23CCC(CC2)Cn2c3nc(C(=O)NCc3ccc(F)cc3)c(O)c2=O)n1 [Example 245, 7,10-Ethanopyrimido[1,2-a]azepine-2-carboxamide, N-[(4-fluorophenyl)methyl]-4,6,7,8,9,10-hexahydro-3-hydroxy-10-[[(1-methyl-1H-pyrazol-3-yl)carbonyl]amino]-4-oxo-] | < 10 |
| Cc1ncnn1-c1cc(F)ccc1CNC(=O)c1nc2n(c(=O)c1O)CC1CCC2(NS(C)(=O)=O)CC1 [Example 39, N-(4-Fluoro-2-(5-methyl-1H-1,2,4-triazol-1-yl)benzyl)-3-hydroxy-10-((methylsulfonyl)amino)-4-oxo-4,6,7,8,9,10-hexahydro-7,10-ethanopyrimido[1,2-a]azepine-2-carboxamide] | < 10 |
| Cc1cc(CNC(=O)c2nc3n(c(=O)c2O)CC2CCC3(NC(=O)C(C)n3cncn3)CC2)ccc1F (centres unmarked) [Example 291, 7,10-Ethanopyrimido[1,2-a]azepine-2-carboxamide, N-[(4-fluoro-3-methylphenyl)methyl]-4,6,7,8,9,10-hexahydro-3-hydroxy-4-oxo-10-[[1-oxo-2-(1H-1,2,4-triazol-1-yl)propyl]amino]-] | < 10 |
| O=C(NC12CCC(CCn3c1nc(C(=O)NCc1ccc(F)cc1)c(O)c3=O)C2)C(=O)N1CC[C@@H](F)C1 (stereo partly drawn) [Example 208, 8,11-Methano-4H-pyrimido[1,2-a]azocine-2-carboxamide, N-[(4-fluorophenyl)methyl]-11-[[2-[(3R)-3-fluoro-1-pyrrolidinyl]-1,2-dioxoethyl]amino]-6,7,8,9,10,11-hexahydro-3-hydroxy-4-oxo-] | < 10 |
